Data published in ChEMBL document CHEMBL5291721, “A preclinical secondary pharmacology resource illuminates target-adverse drug reaction associations of marketed drugs” (Nat Commun, 2023).

Legend:
[1] = target: T1, 5-hydroxytryptamine receptor 1A (Homo sapiens, UniProt P08908)
T1 sequence (P08908 whole entry): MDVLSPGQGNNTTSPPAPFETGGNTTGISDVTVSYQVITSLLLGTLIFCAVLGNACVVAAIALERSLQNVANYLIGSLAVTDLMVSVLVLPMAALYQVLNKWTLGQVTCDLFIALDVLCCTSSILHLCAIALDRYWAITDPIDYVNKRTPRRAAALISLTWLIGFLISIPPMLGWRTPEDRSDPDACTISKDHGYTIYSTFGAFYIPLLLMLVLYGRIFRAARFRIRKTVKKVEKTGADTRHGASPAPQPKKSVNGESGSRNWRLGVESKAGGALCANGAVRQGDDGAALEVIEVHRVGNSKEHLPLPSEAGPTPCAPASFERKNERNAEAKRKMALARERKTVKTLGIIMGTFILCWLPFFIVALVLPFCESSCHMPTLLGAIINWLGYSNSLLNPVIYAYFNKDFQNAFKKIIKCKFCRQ

[2] = target: T2, Corticotropin-releasing factor receptor 2 (Homo sapiens, UniProt Q13324)
T2 sequence (Q13324 whole entry): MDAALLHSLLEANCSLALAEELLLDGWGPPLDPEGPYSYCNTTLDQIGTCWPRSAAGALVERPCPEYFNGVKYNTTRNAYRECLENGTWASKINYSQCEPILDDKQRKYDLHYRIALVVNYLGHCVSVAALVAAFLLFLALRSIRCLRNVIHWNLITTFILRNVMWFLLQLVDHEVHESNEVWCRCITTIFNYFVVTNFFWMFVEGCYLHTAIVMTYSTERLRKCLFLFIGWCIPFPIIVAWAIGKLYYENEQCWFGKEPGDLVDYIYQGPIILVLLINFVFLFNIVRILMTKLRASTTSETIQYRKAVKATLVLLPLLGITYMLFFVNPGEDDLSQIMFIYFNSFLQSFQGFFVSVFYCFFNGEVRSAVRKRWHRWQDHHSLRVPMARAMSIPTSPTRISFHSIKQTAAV

Progesterone receptor = target: T3, Progesterone receptor (Homo sapiens, UniProt P06401)
T3 sequence (P06401 whole entry): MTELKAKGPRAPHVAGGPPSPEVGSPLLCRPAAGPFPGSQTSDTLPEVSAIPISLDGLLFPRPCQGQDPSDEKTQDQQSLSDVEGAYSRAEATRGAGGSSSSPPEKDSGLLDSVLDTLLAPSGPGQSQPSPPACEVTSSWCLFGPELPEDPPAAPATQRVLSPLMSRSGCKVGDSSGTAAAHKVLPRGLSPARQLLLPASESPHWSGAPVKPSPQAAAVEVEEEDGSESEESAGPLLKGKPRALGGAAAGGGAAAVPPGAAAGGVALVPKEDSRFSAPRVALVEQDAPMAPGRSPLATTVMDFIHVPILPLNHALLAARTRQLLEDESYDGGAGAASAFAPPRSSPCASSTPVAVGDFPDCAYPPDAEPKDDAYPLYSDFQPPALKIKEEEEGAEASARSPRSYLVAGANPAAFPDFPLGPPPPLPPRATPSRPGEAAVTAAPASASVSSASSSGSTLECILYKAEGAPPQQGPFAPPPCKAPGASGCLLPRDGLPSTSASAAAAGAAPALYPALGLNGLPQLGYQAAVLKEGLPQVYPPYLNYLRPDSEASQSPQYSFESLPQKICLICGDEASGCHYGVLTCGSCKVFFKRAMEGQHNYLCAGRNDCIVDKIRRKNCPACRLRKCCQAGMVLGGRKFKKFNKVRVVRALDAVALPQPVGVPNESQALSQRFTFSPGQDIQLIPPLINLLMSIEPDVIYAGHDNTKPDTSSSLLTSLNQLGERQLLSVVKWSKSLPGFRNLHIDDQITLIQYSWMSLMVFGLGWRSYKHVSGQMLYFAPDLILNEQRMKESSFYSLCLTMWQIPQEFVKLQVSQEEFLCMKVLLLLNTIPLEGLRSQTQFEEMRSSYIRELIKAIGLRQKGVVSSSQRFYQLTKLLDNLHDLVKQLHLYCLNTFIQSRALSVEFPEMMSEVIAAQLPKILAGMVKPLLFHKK

Estrogen receptor = target: T4, Estrogen receptor (Homo sapiens, UniProt P03372)
T4 sequence (P03372 whole entry): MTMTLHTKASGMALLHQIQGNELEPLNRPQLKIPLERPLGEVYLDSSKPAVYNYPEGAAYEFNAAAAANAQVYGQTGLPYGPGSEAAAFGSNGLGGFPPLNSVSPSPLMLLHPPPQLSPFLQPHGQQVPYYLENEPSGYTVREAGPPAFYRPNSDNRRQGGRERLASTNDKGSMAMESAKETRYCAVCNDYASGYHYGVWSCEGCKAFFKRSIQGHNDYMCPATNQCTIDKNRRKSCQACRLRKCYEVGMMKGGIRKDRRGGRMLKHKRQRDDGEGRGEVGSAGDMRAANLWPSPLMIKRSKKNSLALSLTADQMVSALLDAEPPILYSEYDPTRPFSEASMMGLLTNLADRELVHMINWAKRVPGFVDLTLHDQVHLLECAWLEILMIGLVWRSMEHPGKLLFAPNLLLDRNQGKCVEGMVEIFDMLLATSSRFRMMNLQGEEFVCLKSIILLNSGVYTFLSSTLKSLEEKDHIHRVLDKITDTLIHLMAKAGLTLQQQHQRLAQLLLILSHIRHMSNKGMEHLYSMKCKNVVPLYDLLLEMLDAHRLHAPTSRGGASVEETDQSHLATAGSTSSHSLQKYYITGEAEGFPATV

[3] = target: T5, 5-hydroxytryptamine receptor 2A (Homo sapiens, UniProt P28223); assay type: functional, cell-based
T5 sequence (P28223 whole entry): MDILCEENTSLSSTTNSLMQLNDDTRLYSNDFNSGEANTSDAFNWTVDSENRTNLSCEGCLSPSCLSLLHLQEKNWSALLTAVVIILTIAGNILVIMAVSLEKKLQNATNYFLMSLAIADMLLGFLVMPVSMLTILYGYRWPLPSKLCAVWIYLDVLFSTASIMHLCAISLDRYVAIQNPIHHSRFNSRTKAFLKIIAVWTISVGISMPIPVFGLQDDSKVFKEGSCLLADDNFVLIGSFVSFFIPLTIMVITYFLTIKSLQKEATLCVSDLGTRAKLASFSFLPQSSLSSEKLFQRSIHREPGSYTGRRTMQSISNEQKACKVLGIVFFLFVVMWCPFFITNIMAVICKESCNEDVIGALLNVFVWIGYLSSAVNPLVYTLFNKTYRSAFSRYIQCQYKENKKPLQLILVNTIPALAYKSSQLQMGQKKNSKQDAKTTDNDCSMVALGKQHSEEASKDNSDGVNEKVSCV

[4] = target: T5, 5-hydroxytryptamine receptor 2A; assay type: functional, cell-based; remark: listed apart in the source
Histamine H2 receptor = Histamine H2 receptor (Homo sapiens, UniProt P25021)
Sequence of Histamine H2 receptor (P25021 whole entry): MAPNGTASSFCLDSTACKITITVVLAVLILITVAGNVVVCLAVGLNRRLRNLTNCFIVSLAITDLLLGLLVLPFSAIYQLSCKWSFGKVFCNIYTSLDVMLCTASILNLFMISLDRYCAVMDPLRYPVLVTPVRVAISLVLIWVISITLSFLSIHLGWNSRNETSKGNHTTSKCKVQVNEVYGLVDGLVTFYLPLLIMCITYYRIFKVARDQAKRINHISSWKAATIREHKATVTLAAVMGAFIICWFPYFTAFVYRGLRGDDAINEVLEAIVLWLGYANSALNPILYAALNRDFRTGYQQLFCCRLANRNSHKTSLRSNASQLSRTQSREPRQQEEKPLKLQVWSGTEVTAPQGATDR

[5] = target: 5-hydroxytryptamine receptor 2B (Homo sapiens, UniProt P41595)
Sequence of 5-hydroxytryptamine receptor 2B (P41595 whole entry): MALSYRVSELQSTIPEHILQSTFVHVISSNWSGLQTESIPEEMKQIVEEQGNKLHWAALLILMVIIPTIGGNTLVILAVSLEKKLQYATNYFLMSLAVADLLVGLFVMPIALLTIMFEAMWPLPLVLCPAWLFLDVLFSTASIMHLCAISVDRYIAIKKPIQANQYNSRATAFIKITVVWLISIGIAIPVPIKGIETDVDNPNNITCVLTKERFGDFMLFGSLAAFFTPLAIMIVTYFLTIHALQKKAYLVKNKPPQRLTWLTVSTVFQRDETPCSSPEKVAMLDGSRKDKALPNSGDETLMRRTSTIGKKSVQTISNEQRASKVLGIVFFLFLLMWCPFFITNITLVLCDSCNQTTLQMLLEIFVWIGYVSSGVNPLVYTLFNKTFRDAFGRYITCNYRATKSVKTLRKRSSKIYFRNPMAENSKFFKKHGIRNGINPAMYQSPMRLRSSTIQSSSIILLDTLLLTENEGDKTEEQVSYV
Also: assay procedure not described here.

SMILES	AC50 [1] [µM]	AC50 [2] [µM]	AC50 (Progesterone receptor) [µM]	AC50 (Estrogen receptor) [µM]	AC50 [3] [µM]	AC50 [4] [µM]	AC50 (Histamine H2 receptor) [µM]	AC50 [5] [µM]
CC(C)N(CCC(C(N)=O)(c1ccccc1)c1ccccn1)C(C)C (stereo unspecified) [DISOPYRAMIDE]	> 10	> 30	> 30					
CC(N)C12CC3CC(CC(C3)C1)C2 (stereo unspecified) [RIMANTADINE]				> 10				
C[C@]12C=CC(=O)N[C@@H]1CC[C@@H]1[C@@H]2CC[C@]2(C)[C@@H](C(=O)Nc3cc(C(F)(F)F)ccc3C(F)(F)F)CC[C@@H]12 [DUTASTERIDE]				> 10	> 10	> 10		
CC(C)c1nc(N(C)S(C)(=O)=O)nc(-c2ccc(F)cc2)c1/C=C/[C@@H](O)C[C@@H](O)CC(=O)O [ROSUVASTATIN]				> 30	> 30	> 30		
CC(S)C(=O)NCC(=O)O (stereo unspecified) [TIOPRONIN]					> 30	> 30		
O=C1C(CC[S+]([O-])c2ccccc2)C(=O)N(c2ccccc2)N1c1ccccc1 (stereo unspecified) [SULFINPYRAZONE]				> 10				
OC[C@H]1O[C@@](CO)(O[C@H]2O[C@H](CO)[C@@H](O)[C@H](O)[C@H]2O)[C@@H](O)[C@@H]1O [SUCROSE]				> 30	> 30	> 30		
Nc1ccc(S(=O)(=O)Nc2nccs2)cc1 [SULFATHIAZOLE]	> 10	> 30	> 30	> 30			> 10	> 10
CCN(CC)CCNC(=O)c1c(C)[nH]c(/C=C2\C(=O)Nc3ccc(F)cc32)c1C [SUNITINIB]	7.13							0.158
CO[C@H]1/C=C/O[C@@]2(C)Oc3c(C)c(O)c4c(O)c(c(/C=N/N5CCN(C)CC5)c(O)c4c3C2=O)NC(=O)/C(C)=C\C=C\[C@H](C)[C@H](O)[C@@H](C)[C@@H](O)[C@@H](C)[C@H](OC(C)=O)[C@@H]1C [RIFAMPIN]	> 10	> 30	> 30				> 10	> 10
CC(C)Cc1ccc(C(C)C(=O)O)cc1 (stereo unspecified) [IBUPROFEN]	> 10	> 30	> 30	21.3			> 10	> 10
Cc1onc(-c2ccccc2)c1-c1ccc(S(N)(=O)=O)cc1 [VALDECOXIB]	> 10	> 30	> 30				> 10	> 10
O=C1CCc2cc(OCCCCc3nnnn3C3CCCCC3)ccc2N1 [CILOSTAZOL]	> 10		> 30	> 30				
C[C@H]1c2cccc(O)c2C(=O)C2=C(O)[C@]3(O)C(=O)C(C(N)=O)=C(O)[C@@H](N(C)C)[C@@H]3[C@@H](O)[C@@H]21 [DOXYCYCLINE]	> 10	> 30	> 30				> 10	> 10
C#C[C@]1(O)CC[C@H]2[C@@H]3CCC4=CC(=O)CC[C@@H]4[C@H]3C(=C)C[C@@]21CC [ETONOGESTREL]					> 30	> 30		
COc1ccccc1OCCNCC(O)COc1cccc2[nH]c3ccccc3c12 (stereo unspecified) [CARVEDILOL]	0.02	> 30	> 30	> 30			1.56	0.0101
CN1C(C(=O)Nc2ccccn2)=C(O)c2ccccc2S1(=O)=O [PIROXICAM]				> 10				

SMILES	AC50 [1] [µM]	AC50 [2] [µM]	AC50 (Progesterone receptor) [µM]	AC50 (Estrogen receptor) [µM]	AC50 [3] [µM]	AC50 [4] [µM]	AC50 (Histamine H2 receptor) [µM]	AC50 [5] [µM]
C[C@H](CCC(=O)O)[C@H]1CC[C@H]2[C@@H]3[C@@H](O)C[C@@H]4C[C@H](O)CC[C@]4(C)[C@H]3CC[C@]12C [URSODIOL]					> 30	> 30		
C[C@@H](NCCCc1cccc(C(F)(F)F)c1)c1cccc2ccccc12					> 30	> 30		
CCCN(CCC)C(=O)Cc1c(-c2ccc(Cl)cc2)nc2ccc(Cl)cn12 [ALPIDEM]	> 10			> 30			> 10	> 10
CC(=O)O[C@]1(C(C)=O)CC[C@H]2[C@@H]3C=C(C)C4=CC(=O)CC[C@@H]4[C@H]3CC[C@@]21C [NOMEGESTROL ACETATE]				> 30	> 30	> 30		
CCCC(CCC)C(=O)O [VALPROIC ACID]	> 10	> 30	> 30	> 30				> 10
N[C@@H](CC(=O)N1CCn2c(nnc2C(F)(F)F)C1)Cc1cc(F)c(F)cc1F [SITAGLIPTIN]	> 10						> 10	> 10
CC(C(=O)O)c1ccc2c(c1)[nH]c1ccc(Cl)cc12 (stereo unspecified) [CARPROFEN]				> 30	> 10	> 10		
C=C[C@H]1C[N@@]2CC[C@H]1C[C@@H]2[C@@H](O)c1ccnc2ccc(OC)cc12 [QUINIDINE]	> 10		> 30	> 30				2
CN(C)CCc1c[nH]c2ccc(Cn3cncn3)cc12 [RIZATRIPTAN]		> 30	> 30			7.75	> 10	12
COc1cc2nccc(Oc3ccc(NC(=O)C4(C(=O)Nc5ccc(F)cc5)CC4)cc3)c2cc1OC [CABOZANTINIB]					2.9	> 30		
CN(CC1(C)CCCO1)S(=O)(=O)c1ccc(Cl)c(S(N)(=O)=O)c1 (stereo unspecified) [MEFRUSIDE]					> 30	> 30		
COc1ccc(CC2c3cc(OC)c(OC)cc3CC[N+]2(C)CCC(=O)OCCCCCOC(=O)CC[N+]2(C)CCc3cc(OC)c(OC)cc3C2Cc2ccc(OC)c(OC)c2)cc1OC (stereo unspecified)				> 30	> 30	> 30		
CCN1CCN(Cc2ccc(Nc3ncc(F)c(-c4cc(F)c5nc(C)n(C(C)C)c5c4)n3)nc2)CC1 [ABEMACICLIB]					28	> 30		
COc1cc2nc(N3CCN(C(=O)C4CCCO4)CC3)nc(N)c2cc1OC (stereo unspecified) [TERAZOSIN]	> 10	> 30		> 30			> 10	> 10
O=C1CN(/N=C/c2ccc(-c3ccc([N+](=O)[O-])cc3)o2)C(O)=N1 [DANTROLENE]					> 10	> 10		
C[C@@H](Oc1cc(-c2cnn(C3CCNCC3)c2)cnc1N)c1c(Cl)ccc(F)c1Cl [CRIZOTINIB]	> 10							0.316
